System: S. venezuelae supernatant (secreted enzymes)
Assay: In vitro degradation of CLPs by S. venezuelae cell-free supernatant
Type: in vitro ADME, Streptomyces venezuelae ATCC 10712
Settings: pure CLPs (100 µM) incubated 24 h at 30°C with 4% (vol/vol) Sv CFS (grown on ISP2, 0.22-µm filtered), shaking 180 rpm; UPLC-MS/MS with feature-based molecular networking
Procedure: S. venezuelae cultures were performed on ISP2 medium at 28°C (yeast extract 4 g/L, malt extract 10 g/L, glucose 4 g/L, agar 20 g/L; pH 7.3). On 12 × 12 cm Petri square plates, three stripes (1 × 12 cm) of spores were inoculated with a cotton swab [40 µL of spores suspension (10^7 spores/mL) each], spaced by 3 cm each. The plates were left for 7 days of incubation. Next, the agar media was recovered and placed in Falcon tubes at −20°C for 24 h. Then, the agar media were defrosted at room temperature and centrifuged (8,000 rpm for 20 min). Finally, the supernatant leaked from the agar was collected, filtered sterilized (0.22-µm pore size filters) and stored at −20°C until further use. The heat-treated Sv supernatant was generated by incubating an aliquot of the cell-free supernatant of Sv for 10 min at 98°C. The supernatant was then filtered (0.22-µm pore size filters) and stored at −20°C until further use.
[…] Then the solutions were incubated for 24 h at 30°C with continuous shaking (180 rpm). Next, the solution were centrifuged (1 min at 10,000 rpm), filtered (0.22-µm pore size filters), and analyzed by UPLC-MS.
The degradation assays of Pseudomonas CLPs were performed using CFS generated as described above. They were supplemented by 4% (vol/vol) of S. venezuelae CFS prepared as described previously. Next, the solutions were incubated for 24 h at 30°C with continuous shaking (180 rpm). Then, the solution were centrifuged (1 min at 10,000 rpm), filtered (0.22-µm pore size filters), and analyzed by UPLC-MS.
For the CLP degradation kinetic experiments, surfactin, iturin, and fengycin solutions supplemented with S. venezuelae supernatant were prepared following the same protocol. Twenty microliters of solution was sampled at each time point and directly mixed with 80 µL of acetonitrile to stop enzymatic degradation. Finally, they were stored at −20°C until analysis by UPLC-MS.
All UPLC-MS analyses were performed using an Agilent 1290 Infinity II coupled with a diode array detector and a mass detector (Jet Stream ESI-Q-TOF 6530) in positive mode with the parameters set up as follows: capillary voltage of 3.5 kV, nebulizer pressure of 35 lb/in^2, drying gas of 8 L/min, drying gas temperature of 300°C, flow rate of sheath gas of 11 L/min, sheath gas temperature of 350°C, fragmentor voltage of 175 V, skimmer voltage of 65 V, and octopole radiofrequency of 750 V. Accurate mass spectra were recorded in the m/z range of 300–1,700. For untargeted MS/MS, we used the same MS1 parameters as described. We added MS2 untargeted acquisition mode with the parameters as follows: MS/MS range 50–1,700 m/z; MS/MS scan rate 3 spectra/s; isolation width MS/MS medium (approx. 4 AMU), Decision Engine Native; fixed collision energies of 25 and 40 V for surfactin, 50 V for iturin, and 60 V for fengycin experiments; precursor selection: three for the surfactin experiment, four for the iturin and fengycin experiments, threshold 1,500 (Abs), isotope model common, active exclusion after two spectra and release after 0.5 min, sorting the precursors by charge state then abundance (charge state preference 1). For targeted MS/MS, we used the same MS1 parameters MS/MS range of 50–1,700 m/z or 50–3,200 (when required for Pseudomonas CLPs with mass >1,700 Da), MS/MS scan rate 3 spectra/s, isolation width MS/MS narrow (approx. 1.3 amu), and fixed collision energies 20, 40, and 60V. In all experiments, a C18 Acquity UPLC ethylene bridged hybrid column (2.1 mm × 50 mm × 1.7 µm; Waters Corporation, Milford, MA, USA) was used at a flow rate of 0.6 mL/min and a temperature of 40°C. The injection volume was 20 µL, and the diode array detector scanned a wavelength spectrum between 190 and 600 nm. Unless otherwise mentioned, a gradient of acidified water (0.1% formic acid) (solvent A) and of acidified acetonitrile (0.1% formic acid) (solvent B) was used as mobile phase with a constant flow rate of 0.6 mL/min, starting at 10% B and rising to 100% B in 20 min. […]

iturin was tested, and the “degradation of pure Bacillus CLPs by Sv CFS” value was “degrades”.

Source: publication PMC10783051 (Microbiology Spectrum, 2023)
